Experimental data: ChEMBL document CHEMBL1121724 (J Med Chem, 1981)

Experiments:
[1] = molecular target: Thromboxane-A synthase (Oryctolagus cuniculus); experiment: Inhibitory activity against Thromboxane synthetase
[2] = tested on: Thromboxane-A synthase (Oryctolagus cuniculus); conditions: at 100 µM
[3] = molecular target: T1, Thromboxane-A synthase (Homo sapiens) (UniProt P24557); experiment: Inhibition of Thromboxane synthetase at 100 µM
T1 sequence (whole entry): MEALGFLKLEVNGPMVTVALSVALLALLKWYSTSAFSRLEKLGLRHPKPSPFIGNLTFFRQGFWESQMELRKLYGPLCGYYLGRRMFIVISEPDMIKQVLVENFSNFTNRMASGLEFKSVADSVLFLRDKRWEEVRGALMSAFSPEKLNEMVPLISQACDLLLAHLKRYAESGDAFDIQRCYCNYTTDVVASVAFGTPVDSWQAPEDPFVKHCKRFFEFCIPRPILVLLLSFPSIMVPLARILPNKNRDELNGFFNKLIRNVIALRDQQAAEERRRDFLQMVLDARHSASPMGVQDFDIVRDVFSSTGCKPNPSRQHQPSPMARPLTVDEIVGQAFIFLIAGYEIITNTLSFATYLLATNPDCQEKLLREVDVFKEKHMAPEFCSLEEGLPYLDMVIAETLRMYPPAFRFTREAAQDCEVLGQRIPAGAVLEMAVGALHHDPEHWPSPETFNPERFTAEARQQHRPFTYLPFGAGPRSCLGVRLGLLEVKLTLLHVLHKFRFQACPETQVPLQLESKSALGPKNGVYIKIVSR

O=C(O)CCCCc1ccncc1
IC50 [1]: > 1000 nM

C/C(=C\c1ccc(Cc2ccncc2)cc1)C(=O)O
IC50 [1]: > 1000 nM

O=C(O)/C=C/c1ccc(Cc2cccnc2)cc1
IC50 [1]: 10 nM

c1cn[nH]c1
inhibition [2]: 8.9%

C/C(=C/c1ccc(Cc2cccnc2)cc1)C(=O)O
IC50 [1]: 3 nM

O=C(O)CCCCCCCc1ccncc1
IC50 [1]: > 1000 nM

C/C(=C\C(=O)O)c1ccc(Cc2cccnc2)cc1
IC50 [1]: 56 nM

CC(Cc1ccc(Cc2cccnc2)cc1)C(=O)O (stereo not drawn)
IC50 [1]: 20 nM

c1cscn1
inhibition [2]: 17.3%

c1cncnc1
inhibition [3]: 12%

O=C(O)CCCCCc1ccncc1
IC50 [1]: > 1000 nM

O=C(O)CCCCCCc1ccncc1
IC50 [1]: > 1000 nM

C/C(=C\C(=O)O)c1ccc(Cc2cccnc2)c(C)c1
IC50 [1]: 18 nM

C/C(=C\c1ccc(C(C)c2cccnc2)cc1)C(=O)O (stereo not drawn)
IC50 [1]: 25 nM

C/C(=C\c1ccc(Cc2cccnc2)s1)C(=O)O
IC50 [1]: 12 nM

c1ncncn1
inhibition [2]: 11%

O=C(O)/C(Br)=C/c1ccc(Cc2cccnc2)cc1
IC50 [1]: 5 nM

CC/C(=C\c1ccc(Cc2cccnc2)cc1)C(=O)O
IC50 [1]: 7 nM

O=C(O)CCCCCn1ccnc1
IC50 [1]: > 1000 nM

c1ccnnc1
inhibition [2]: 16.8%

O=C(O)CCCCCc1cccnc1
IC50 [1]: 86 nM

O=C(O)CCCCCCc1cccnc1
IC50 [1]: 68 nM

C/C(=C\c1ccc(Cn2ccnc2)cc1)C(=O)O
IC50 [1]: 4 nM

O=C(O)CCCCc1cccnc1
IC50 [1]: 500 nM

O=C(O)CCCCn1ccnc1
IC50 [1]: > 1000 nM

O=C(O)CCc1ccc(Cc2cccnc2)cc1
IC50 [1]: 210 nM

O=C(O)/C=C/c1ccc(Cc2cccnc2)s1
IC50 [1]: 47 nM

O=C(O)CCCCCCCc1cccnc1
IC50 [1]: 76 nM
